Assay results published in US20210040151A1, “MICROMOLECULE POLYPEPTIDE AND USE THEREOF” (NANFANG HOSPITAL OF SOUTHERN MEDICAL UNIVERSITY, priority 2019, published 2021).
“Also recorded” adds a separate entry of the source.

Columns and labels:
UUO mice = assay: Kidney fibrosis in UUO (unilateral ureter ligation) mouse model: sirus scarlet staining, fibronectin immunostaining, western blot; type: in vivo, BALB/C mice
Procedure: (§1) BALB/C mice, male and female, a weight ranging from 20 g to 22 g, and a SPF grade.
(§2) The animals were weighed and numbered. 18 healthy mice with a weight ranging from 20 g to 22 g were selected and randomly divided into 3 groups, with 6 mice in each group, including a sham operation group, a model group and an administration group.
(§3) 1) Sham operation group: at a room temperature, after mice were anaesthetized with 3% pentobarbital sodium at 1 ml/kg body weight, a left abdomen part of 2 cm to 3 cm was selected as an incision; and skin, a subcutaneous layer, a muscular layer and a peritoneum were cut layer by layer after local disinfection, and then were sutured layer by layer immediately after finding a left ureter. After local disinfection, the mice were verified and marked, and then placed in a corresponding mouse cage.
(§4) 2) Model control group: anesthetization and disinfection were performed same as the sham operation group. Skin, a subcutaneous layer, a muscular layer and a peritoneum were cut layer by layer, and then were sutured layer by layer after finding a left ureter and performing a ligation at an upper ⅓ segment of the ureter. After local disinfection, the mice were verified and marked, and then placed in a corresponding mouse cage.
as §4, with “3) Administration” for “2) Model control”, “as” for “as the”
KP-6T or KP-6 water soluble powder was diluted with sterile 0.01 Mol glacial acetic acid solution to a storage concentration of 10 mg/ml. The mice of each experimental group were raised in different cages. The sham operation group was only observed. The model control group was only given 0.01 Mol glacial acetic acid solution by tail vein injection. The administration group was given glacial acetic acid solution containing KP-6T or KP-6 of 0.5 mg/kg of body weight by tail vein injection on the 1st or 5th day after UUO operation for 6 consecutive days. The mice in each group were euthanized after 7 days or 11 days of raising, left kidneys were taken, and then tissues were respectively fixed with 10% neutral formaldehyde and frozen with liquid nitrogen. The formaldehyde-fixed tissues were dehydrated, embedded, sliced and flaked, and then subjected to sirus scarlet staining and fibronectin immumohistochemical staining respectively. A protein was extracted after homogenization of the frozen tissues, and a fibrosis index, and expression levels of an active-β-catenin and a target gene thereof were detected by western blot.
1) A degree of kidney tissue fibrosis was detected by sirus scarlet staining.

β-catenin signal pathway = β-catenin signal pathway in kidney tissue of UUO mice: western blot, mRNA of target genes; type: in vivo, BALB/C mice
Procedure: as §1, §2, §3, §4
as §4, with “3) Administration” for “2) Model control”, “as” for “as the”
KP-6T or KP-6 water soluble powder was diluted with sterile 0.01 Mol glacial acetic acid solution to a storage concentration of 10 mg/ml. The mice of each experimental group were raised in different cages. […] A protein was extracted after homogenization of the frozen tissues, and a fibrosis index, and expression levels of an active-β-catenin and a target gene thereof were detected by western blot.

[1] = UUO mice, 0.5 mg/kg tail vein injection for 6 days from 1st or 5th day after UUO, vs model control group (FIG. 2 and FIG. 5)
[2] = advanced UUO mouse, administration from 5th day after UUO, 0.5 mg/kg tail vein, vs model group (FIG. 7)
[3] = advanced UUO mouse, administration from 5th day after UUO, 0.5 mg/kg tail vein, vs model group (FIG. 7), 0.5 mg/kg
[4] = UUO mice, 0.5 mg/kg tail vein injection for 6 days from 1st or 5th day after UUO, vs model control group (FIG. 3 and FIG. 6)

## LQDAYGGWANR (Synthesized by Nanjing Genscript Biotechnology Co. Ltd.) [KP-6T]
UUO mice; UUO mice, 0.5 mg/kg tail vein injection for 6 consecutive days from 1st or 5th day after UUO, vs model control group (FIG. 1 and FIG. 4)
  collagen deposition in renal interstitium (sirus scarlet staining): significantly lower
UUO mice; [1]
  level of fibronectin in kidneys: significantly reduced
  level of smooth muscle actin α (α-SMA) in kidneys: significantly reduced
UUO mice; administered the 5th day after UUO
  collagen deposition in the renal interstitium: significantly inhibit
UUO mice; [2]
  deposition of extracellular matrix in renal interstitium: significantly reduced
  protein Klotho expressed by healthy kidney tubular epithelial cells: recovered
UUO mice; [3]
  level of fibronectin in kidneys: significantly reduced; also recorded: significantly inhibit
  level of smooth muscle actin α (α-SMA) in kidneys: significantly reduced; also recorded: significantly inhibit
β-catenin signal pathway; [4]
  expression level of downstream target gene of β-catenin (PAI-1, Snail-1, MMP7 mRNA) in kidneys: significantly reduced
  expression level of β-catenin protein in kidneys: significantly reduced
β-catenin signal pathway; [2]
  Wnt signal pathway (active-β-catenin): inhibited
